Data published in US8192962B2, “Processes for detecting toxic substances” (Daikin Industries, Ltd., priority 2001, dated 2012).

Test system: DNA repair protein genes
Assay: DNA chip mRNA expression in yeast, DNA repair protein genes (Table 3)
Type: cell-based, Saccharomyces cerevisiae S288C
Settings: incubated two hours, concentrations as in the 1st table
How it was run: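 S. cerevisiae S288C grown at 25° C in YPD were exposed in log phase for two hours to one toxic chemical at a growth-inhibiting, non-lethal concentration; untreated cells served as control. Poly(A) mRNA was reverse-transcribed with Cy3/Cy5-dUTP and hybridized to a whole-genome yeast DNA chip at 65° C for over 12 hours; values are fluorescence ratios versus untreated.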

N#Cc1c(Cl)c(Cl)c(Cl)c(C#N)c1Cl [(9), 2,4,5,6-tetrachloro-1,3-benzenedicarbonitrile]
The level of expressed mRNA in the presence of chemical substance/The level of expressed mRNA in the absence of chemical substance (yeast gene YAL015C): 4.0
The level of expressed mRNA in the presence of chemical substance/The level of expressed mRNA in the absence of chemical substance (yeast gene YAR007C): 4.1
The level of expressed mRNA in the presence of chemical substance/The level of expressed mRNA in the absence of chemical substance (yeast gene YBL019W): 2.6
The level of expressed mRNA in the presence of chemical substance/The level of expressed mRNA in the absence of chemical substance (yeast gene YBR073W): 2.5
The level of expressed mRNA in the presence of chemical substance/The level of expressed mRNA in the absence of chemical substance (yeast gene YBR272C): 1.7
The level of expressed mRNA in the presence of chemical substance/The level of expressed mRNA in the absence of chemical substance (yeast gene YCR014C): 2.4
The level of expressed mRNA in the presence of chemical substance/The level of expressed mRNA in the absence of chemical substance (yeast gene YDL017W): 0.8
The level of expressed mRNA in the presence of chemical substance/The level of expressed mRNA in the absence of chemical substance (yeast gene YDL059C): 10.5
The level of expressed mRNA in the presence of chemical substance/The level of expressed mRNA in the absence of chemical substance (yeast gene YDL200C): 2.4
The level of expressed mRNA in the presence of chemical substance/The level of expressed mRNA in the absence of chemical substance (yeast gene YDR054C): 2.9
The level of expressed mRNA in the presence of chemical substance/The level of expressed mRNA in the absence of chemical substance (yeast gene YDR369C): 2.4
The level of expressed mRNA in the presence of chemical substance/The level of expressed mRNA in the absence of chemical substance (yeast gene YEL019C): 0.7
The level of expressed mRNA in the presence of chemical substance/The level of expressed mRNA in the absence of chemical substance (yeast gene YEL037C): 2.6
The level of expressed mRNA in the presence of chemical substance/The level of expressed mRNA in the absence of chemical substance (yeast gene YER162C): 2.8
The level of expressed mRNA in the presence of chemical substance/The level of expressed mRNA in the absence of chemical substance (yeast gene YFL014W): 13.1
The level of expressed mRNA in the presence of chemical substance/The level of expressed mRNA in the absence of chemical substance (yeast gene YGL058W): 3.7
The level of expressed mRNA in the presence of chemical substance/The level of expressed mRNA in the absence of chemical substance (yeast gene YGL091C): 10.8
The level of expressed mRNA in the presence of chemical substance/The level of expressed mRNA in the absence of chemical substance (yeast gene YGL127C): 1.2
The level of expressed mRNA in the presence of chemical substance/The level of expressed mRNA in the absence of chemical substance (yeast gene YGL163C): 5.8
The level of expressed mRNA in the presence of chemical substance/The level of expressed mRNA in the absence of chemical substance (yeast gene YGL249W): 0.3
The level of expressed mRNA in the presence of chemical substance/The level of expressed mRNA in the absence of chemical substance (yeast gene YGR180C): 1.4
The level of expressed mRNA in the presence of chemical substance/The level of expressed mRNA in the absence of chemical substance (yeast gene YGR231C): 3.2
The level of expressed mRNA in the presence of chemical substance/The level of expressed mRNA in the absence of chemical substance (yeast gene YGR258C): 2.5
The level of expressed mRNA in the presence of chemical substance/The level of expressed mRNA in the absence of chemical substance (yeast gene YHR164C): 1.3
The level of expressed mRNA in the presence of chemical substance/The level of expressed mRNA in the absence of chemical substance (yeast gene YIL036W): 3.6
The level of expressed mRNA in the presence of chemical substance/The level of expressed mRNA in the absence of chemical substance (yeast gene YIL072W): 2.9
The level of expressed mRNA in the presence of chemical substance/The level of expressed mRNA in the absence of chemical substance (yeast gene YIL143C): 7.1
The level of expressed mRNA in the presence of chemical substance/The level of expressed mRNA in the absence of chemical substance (yeast gene YIL153W): 4.3
The level of expressed mRNA in the presence of chemical substance/The level of expressed mRNA in the absence of chemical substance (yeast gene YIR002C): 1.7
The level of expressed mRNA in the presence of chemical substance/The level of expressed mRNA in the absence of chemical substance (yeast gene YJL026W): 1.0
The level of expressed mRNA in the presence of chemical substance/The level of expressed mRNA in the absence of chemical substance (yeast gene YJR046W): 6.0
The level of expressed mRNA in the presence of chemical substance/The level of expressed mRNA in the absence of chemical substance (yeast gene YJR052W): 4.5
The level of expressed mRNA in the presence of chemical substance/The level of expressed mRNA in the absence of chemical substance (yeast gene YKL145W): 3.5
The level of expressed mRNA in the presence of chemical substance/The level of expressed mRNA in the absence of chemical substance (yeast gene YLR103C): 0.8
The level of expressed mRNA in the presence of chemical substance/The level of expressed mRNA in the absence of chemical substance (yeast gene YLR233C): 0.6
The level of expressed mRNA in the presence of chemical substance/The level of expressed mRNA in the absence of chemical substance (yeast gene YLR288C): 0.8
The level of expressed mRNA in the presence of chemical substance/The level of expressed mRNA in the absence of chemical substance (yeast gene YML032C): 3.0
The level of expressed mRNA in the presence of chemical substance/The level of expressed mRNA in the absence of chemical substance (yeast gene YML058W): 1.1
The level of expressed mRNA in the presence of chemical substance/The level of expressed mRNA in the absence of chemical substance (yeast gene YMR035W): 1.7
The level of expressed mRNA in the presence of chemical substance/The level of expressed mRNA in the absence of chemical substance (yeast gene YMR072W): 3.0
The level of expressed mRNA in the presence of chemical substance/The level of expressed mRNA in the absence of chemical substance (yeast gene YMR096W): 3.3
The level of expressed mRNA in the presence of chemical substance/The level of expressed mRNA in the absence of chemical substance (yeast gene YMR284W): 1.6
The level of expressed mRNA in the presence of chemical substance/The level of expressed mRNA in the absence of chemical substance (yeast gene YNL213C): 3.0
The level of expressed mRNA in the presence of chemical substance/The level of expressed mRNA in the absence of chemical substance (yeast gene YNL250W): 4.2
The level of expressed mRNA in the presence of chemical substance/The level of expressed mRNA in the absence of chemical substance (yeast gene YNL261W): 2.3
The level of expressed mRNA in the presence of chemical substance/The level of expressed mRNA in the absence of chemical substance (yeast gene YNL312W): 3.7
The level of expressed mRNA in the presence of chemical substance/The level of expressed mRNA in the absence of chemical substance (yeast gene YOL043C): 1.0
The level of expressed mRNA in the presence of chemical substance/The level of expressed mRNA in the absence of chemical substance (yeast gene YOR005C): 2.4
The level of expressed mRNA in the presence of chemical substance/The level of expressed mRNA in the absence of chemical substance (yeast gene YOR386W): 4.1
The level of expressed mRNA in the presence of chemical substance/The level of expressed mRNA in the absence of chemical substance (yeast gene YPL022W): 2.1
The level of expressed mRNA in the presence of chemical substance/The level of expressed mRNA in the absence of chemical substance (yeast gene YPL164C): 2.1
The level of expressed mRNA in the presence of chemical substance/The level of expressed mRNA in the absence of chemical substance (yeast gene YPL194W): 9.6
The level of expressed mRNA in the presence of chemical substance/The level of expressed mRNA in the absence of chemical substance (yeast gene YPR025C): 1.9
